Experimental data published in PMC8213057, “Targeting ALK2: An Open Science Approach to Developing Therapeutics for the Treatment of Diffuse Intrinsic Pontine Glioma” (Journal of Medicinal Chemistry, 2020).

What was measured:
[1] = target: T1, IKKe/IKBKE (Homo sapiens, UniProt Q14164); settings: 1 μM; Run 1, Run 2
T1 sequence (Q14164 1-716): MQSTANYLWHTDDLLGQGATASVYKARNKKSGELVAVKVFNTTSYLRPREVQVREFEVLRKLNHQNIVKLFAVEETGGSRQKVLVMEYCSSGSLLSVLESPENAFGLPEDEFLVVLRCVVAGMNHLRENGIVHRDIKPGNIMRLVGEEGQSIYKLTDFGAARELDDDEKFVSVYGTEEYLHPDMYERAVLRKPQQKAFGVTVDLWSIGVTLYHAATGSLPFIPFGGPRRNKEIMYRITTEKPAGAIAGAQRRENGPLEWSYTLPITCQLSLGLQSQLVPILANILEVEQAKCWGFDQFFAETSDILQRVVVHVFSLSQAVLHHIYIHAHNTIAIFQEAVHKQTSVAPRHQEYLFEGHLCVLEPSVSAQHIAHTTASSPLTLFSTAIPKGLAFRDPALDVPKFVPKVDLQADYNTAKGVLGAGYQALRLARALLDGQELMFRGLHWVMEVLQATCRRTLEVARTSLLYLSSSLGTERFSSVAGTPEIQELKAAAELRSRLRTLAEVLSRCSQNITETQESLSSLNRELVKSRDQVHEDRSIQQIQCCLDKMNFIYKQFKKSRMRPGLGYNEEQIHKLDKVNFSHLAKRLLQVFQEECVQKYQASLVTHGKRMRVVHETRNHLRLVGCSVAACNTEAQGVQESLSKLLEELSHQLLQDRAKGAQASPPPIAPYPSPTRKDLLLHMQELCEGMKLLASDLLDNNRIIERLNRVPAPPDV

[2] = target: AKT3 (Homo sapiens, UniProt Q9Y243); assay: biochemical; settings: read-out: % enzyme activity, 1 μM; Run 1, Run 2
Sequence of AKT3 (Q9Y243 whole entry): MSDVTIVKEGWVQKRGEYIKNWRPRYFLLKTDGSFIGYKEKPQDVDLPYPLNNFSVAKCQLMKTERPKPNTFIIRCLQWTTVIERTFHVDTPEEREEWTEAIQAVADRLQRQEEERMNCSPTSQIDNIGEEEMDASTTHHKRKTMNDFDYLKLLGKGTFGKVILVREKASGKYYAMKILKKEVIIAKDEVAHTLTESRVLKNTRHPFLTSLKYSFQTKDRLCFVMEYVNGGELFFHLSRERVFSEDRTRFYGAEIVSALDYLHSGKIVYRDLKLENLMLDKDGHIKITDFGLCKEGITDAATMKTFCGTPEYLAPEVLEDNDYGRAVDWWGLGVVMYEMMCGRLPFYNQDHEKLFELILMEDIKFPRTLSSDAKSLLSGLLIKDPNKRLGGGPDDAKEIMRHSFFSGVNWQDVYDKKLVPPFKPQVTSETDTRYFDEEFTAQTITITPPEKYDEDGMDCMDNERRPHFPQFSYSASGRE

[3] = target: T2, EPHA6 (Homo sapiens, UniProt Q9UF33); assay: biochemical; settings: read-out: % enzyme activity, 1 μM; Run 1, Run 2
T2 sequence (Q9UF33 23-1036): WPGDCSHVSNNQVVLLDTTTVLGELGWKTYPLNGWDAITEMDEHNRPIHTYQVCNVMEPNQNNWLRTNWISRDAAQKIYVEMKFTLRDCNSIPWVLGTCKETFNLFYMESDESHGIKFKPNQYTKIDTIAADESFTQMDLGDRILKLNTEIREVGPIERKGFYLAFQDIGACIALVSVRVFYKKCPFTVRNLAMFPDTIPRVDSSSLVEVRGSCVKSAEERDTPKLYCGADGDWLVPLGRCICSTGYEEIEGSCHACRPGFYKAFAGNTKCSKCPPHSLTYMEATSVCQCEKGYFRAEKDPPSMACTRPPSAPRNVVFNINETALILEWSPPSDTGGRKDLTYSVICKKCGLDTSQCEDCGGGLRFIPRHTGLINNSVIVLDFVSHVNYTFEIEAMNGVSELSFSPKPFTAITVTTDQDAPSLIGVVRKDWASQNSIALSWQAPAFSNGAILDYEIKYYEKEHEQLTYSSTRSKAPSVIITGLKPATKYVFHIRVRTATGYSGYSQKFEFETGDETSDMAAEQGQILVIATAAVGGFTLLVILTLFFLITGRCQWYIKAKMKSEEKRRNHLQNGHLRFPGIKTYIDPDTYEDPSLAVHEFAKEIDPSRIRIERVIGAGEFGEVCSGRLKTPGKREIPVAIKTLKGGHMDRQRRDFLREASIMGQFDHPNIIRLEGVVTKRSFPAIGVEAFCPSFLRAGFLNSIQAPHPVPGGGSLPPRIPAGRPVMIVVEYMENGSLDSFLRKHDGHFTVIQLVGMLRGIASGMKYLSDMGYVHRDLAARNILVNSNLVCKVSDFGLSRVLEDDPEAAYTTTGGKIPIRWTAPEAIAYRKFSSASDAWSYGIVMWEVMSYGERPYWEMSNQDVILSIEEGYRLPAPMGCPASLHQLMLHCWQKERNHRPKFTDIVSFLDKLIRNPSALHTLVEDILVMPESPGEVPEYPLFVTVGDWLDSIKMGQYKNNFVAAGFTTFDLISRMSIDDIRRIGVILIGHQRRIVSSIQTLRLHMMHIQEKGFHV

[4] = target: T3, TNK1 (Homo sapiens, UniProt Q13470); assay: biochemical; settings: read-out: % enzyme activity, 1 μM; Run 1, Run 2
T3 sequence (Q13470 1-666): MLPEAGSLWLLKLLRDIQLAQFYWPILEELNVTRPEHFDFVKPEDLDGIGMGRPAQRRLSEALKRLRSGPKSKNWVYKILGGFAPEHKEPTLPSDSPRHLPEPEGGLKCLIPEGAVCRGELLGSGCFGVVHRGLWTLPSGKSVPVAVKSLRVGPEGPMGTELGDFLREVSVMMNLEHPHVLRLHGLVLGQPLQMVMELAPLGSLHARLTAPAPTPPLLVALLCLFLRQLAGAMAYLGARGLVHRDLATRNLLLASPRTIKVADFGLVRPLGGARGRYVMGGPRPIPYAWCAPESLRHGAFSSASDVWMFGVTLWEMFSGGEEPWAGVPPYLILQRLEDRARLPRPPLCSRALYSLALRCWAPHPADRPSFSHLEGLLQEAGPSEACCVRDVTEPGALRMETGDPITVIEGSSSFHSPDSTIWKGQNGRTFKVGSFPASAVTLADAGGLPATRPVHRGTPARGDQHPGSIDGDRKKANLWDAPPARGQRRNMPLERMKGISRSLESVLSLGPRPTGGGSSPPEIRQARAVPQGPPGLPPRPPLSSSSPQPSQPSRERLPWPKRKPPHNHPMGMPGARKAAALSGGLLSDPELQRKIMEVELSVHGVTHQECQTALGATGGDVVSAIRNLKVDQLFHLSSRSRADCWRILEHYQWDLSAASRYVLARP

SMILES	% enzyme activity [1] [%]	remaining activity at 1 µM [2] [%]	remaining activity at 1 µM [3] [%]	remaining activity at 1 µM [4] [%]
COc1cc(-c2cncc(-c3ccc(N4CCN(C)CC4)cc3)c2C)cc(F)c1C(N)=O [Compound 26a, 2-Fluoro-6-methoxy-4-(4-methyl-5-(4-(4-methylpiperazin-1-yl)phenyl)pyridin-3-yl)benzamide]	87.51	95	105	105
COc1cc(-c2cncc(-c3ccc(N4C[C@@H](C)N(C)[C@@H](C)C4)cc3)c2C)cc(F)c1C(N)=O [Compound 26c, 2-Fluoro-6-methoxy-4-(4-methyl-5-(4-((3R,5S)-3,4,5-trimethylpiperazin-1-yl)phenyl)pyridin-3-yl)benzamide]	94.75	98.7	106	98.6
